Tests used:
[1] = system: Smn protein produced from the SMN2 gene; assay: Smn protein assay in tissues of adult C/C-allele SMA mice; assay type: in vivo; conditions: brain, spinal cord, muscle
Procedure: This Smn protein assay compares tissues from test compound treated mice with those from DMSO vehicle treated mice to determine the increase in levels of Smn protein produced from the human SMN2 gene.
Protocol. The tissue samples in Safe-Lock tubes are weighed and the volume of RIPA buffer containing the protease inhibitor cocktail is added based on the weight to volume ratios for each type of tissue: Brain (50 mg/mL), Muscle (50 mg/mL) and Spinal Cord (25 mg/mL).
Tissues are homogenized using the TissueLyzer by bead milling. 5 mm stainless steel beads are added to the sample and shaken vigorously for 5 minutes at 30 Hz in the TissueLyzer. […] Fluorescence for each well of the plate at 665 nm and 620 nm is measured on an EnVision multilabel plate reader (Perkin-Elmer). The total protein in the tissue homogenate is measured using the BCA assay according to the manufacturer's protocol.
The normalized fluorescence signal is calculated for each sample, Blank and vehicle control well by dividing the signal at 665 nm by the signal at 620 nm. Normalizing the signal accounts for possible fluorescence quenching due to the matrix effect of the tissue homogenate. […] The ΔF value for each tissue sample well is divided by the total protein quantity (determined using the BCA assay) for that tissue sample. […]

[2] = system: neonatal SMA Δ7 homozygous knockout mice; assay: Righting reflex in neonatal Δ7 SMA mice; assay type: in vivo; conditions: IP QD from PND 3, versus vehicle (FIG. 14)
Procedure: The functional change in righting reflex of neonatal SMA mice is used to determine whether treatment with a test compound improves righting reflex.
Protocol. SMA Δ7 homozygous knockout mice are dosed intraperitoneally (IP) with test compound or vehicle (100% DMSO) QD from PND 3 until the dose regimen is switched to an oral dose BID in 0.5% hydroxypropylmethyl cellulose (HPMC) with 0.1% Tween-80 at a dose 3.16-fold higher than the dose used for IP. The righting reflex time is measured as the time taken by a mouse to flip over onto its feet after being laid on its back. Righting reflex is measured five times for each mouse (allowing a maximal time of 30 sec for each try) with 5 minutes between each measurement. The righting reflex time for SMA Δ7 homozygous knockout mice treated with test compound or vehicle and age-matched heterozygous mice is measured on PND 10, 14 and 18 and plotted.

Row | SMILES | total protein-normalized Smn level ([1]; 100 mg/kg BID for 10 days, relative to vehicle group (FIG. 11a)) | righting reflex [2] | total protein-normalized Smn level ([1]; 10 mg/kg BID for 10 days, relative to vehicle group (FIG. 11b))
1 | COc1ccc(-c2cc(=O)n3cc(N4CCNCC4)ccc3n2)cc1OC [Cpd 6, 2-(3,4-dimethoxyphenyl)-7-(piperazin-1-yl)-4H-pyrido[1,2-a]pyrimidin-4-one] | increased in brain, spinal cord, and muscle tissues | improved compared to vehicle treated mice | –
2 | Cc1cn2nc(-c3cc(=O)n4cc(N5CCN(C)CC5)ccc4n3)cc2c(C)n1 [Cpd 170, 2-(4,6-dimethylpyrazolo[1,5-a]pyrazin-2-yl)-7-(4-methylpiperazin-1-yl)-4H-pyrido[1,2-a]pyrimidin-4-one] | – | improved compared to vehicle treated mice | increased in brain, spinal cord, and muscle tissues

— patent US11753407B2, “Compounds for treating spinal muscular atrophy” (PTC Therapeutics, Inc., priority 2012, dated 2023)
